From PubChem BioAssay (NCI)
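Exposure lasted 48 hours, with cells grown in 96-well plates and compounds tested at five concentrations. GI50 = concentration required for 50% inhibition of growth. Definition used: TGI = concentration required for complete inhibition of growth.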

Experiments:
Assay in all cases: NCI tumour cell line growth inhibition, 48 h
786-0 renal = test system: 786-0 renal
A498 renal = test system: A498 renal
A549 NSCLC = test system: A549 NSCLC
ACHN renal = test system: ACHN renal
BT-549 breast = test system: BT-549 breast
CAKI-1 renal = test system: CAKI-1 renal
COLO 205 colon = test system: COLO 205 colon
DU-145 prostate = test system: DU-145 prostate
EKVX NSCLC = test system: EKVX NSCLC
HCC-2998 colon = test system: HCC-2998 colon
HCT-116 colon = test system: HCT-116 colon
HCT-15 colon = test system: HCT-15 colon
HOP-62 NSCLC = test system: HOP-62 NSCLC
HOP-92 NSCLC = test system: HOP-92 NSCLC
HS 578T breast = test system: HS 578T breast
HT29 colon = test system: HT29 colon
IGROV1 ovarian = test system: IGROV1 ovarian
K-562 leukemia = test system: K-562 leukemia
KM12 colon = test system: KM12 colon
LOX IMVI melanoma = test system: LOX IMVI melanoma
M14 melanoma = test system: M14 melanoma
MALME-3M melanoma = test system: MALME-3M melanoma
MCF7 breast = test system: MCF7 breast
MDA-MB-231 breast = test system: MDA-MB-231 breast
MDA-MB-435 = test system: MDA-MB-435
NCI-H226 lung = test system: NCI-H226 lung
NCI-H23 lung = test system: NCI-H23 lung
NCI-H460 lung = test system: NCI-H460 lung
NCI-H522 lung = test system: NCI-H522 lung
NCI/ADR-RES ovarian = test system: NCI/ADR-RES ovarian
OVCAR-3 ovarian = test system: OVCAR-3 ovarian
OVCAR-4 ovarian = test system: OVCAR-4 ovarian
OVCAR-5 ovarian = test system: OVCAR-5 ovarian
OVCAR-8 ovarian = test system: OVCAR-8 ovarian
PC-3 prostate = test system: PC-3 prostate
RPMI-8226 leukemia = test system: RPMI-8226 leukemia
RXF 393 renal = test system: RXF 393 renal
SF-268 CNS = test system: SF-268 CNS
SF-295 CNS = test system: SF-295 CNS
SF-539 CNS = test system: SF-539 CNS
SK-MEL-2 melanoma = test system: SK-MEL-2 melanoma
SK-MEL-28 melanoma = test system: SK-MEL-28 melanoma
SK-MEL-5 melanoma = test system: SK-MEL-5 melanoma
SK-OV-3 ovarian = test system: SK-OV-3 ovarian
SN12C renal = test system: SN12C renal
SNB-19 CNS = test system: SNB-19 CNS
SNB-75 CNS = test system: SNB-75 CNS
SW-620 colon = test system: SW-620 colon
T-47D breast = test system: T-47D breast
TK-10 renal = test system: TK-10 renal
U251 CNS = test system: U251 CNS
UACC-257 melanoma = test system: UACC-257 melanoma
UACC-62 melanoma = test system: UACC-62 melanoma
UO-31 renal = test system: UO-31 renal

Fc1cc(-c2csc3n[nH]c(=S)n23)c(Cl)cc1Cl
GI50 (786-0 renal): 22.2 µM | TGI (786-0 renal): 42.7 µM | GI50 (A498 renal): 19 µM | TGI (A498 renal): 47.1 µM | GI50 (A549 NSCLC): 42 µM | TGI (A549 NSCLC): > 100 µM | GI50 (ACHN renal): 23.7 µM | TGI (ACHN renal): 57.5 µM | GI50 (BT-549 breast): 36.4 µM | TGI (BT-549 breast): > 100 µM | GI50 (CAKI-1 renal): 33 µM | TGI (CAKI-1 renal): > 100 µM | GI50 (COLO 205 colon): 41.7 µM | TGI (COLO 205 colon): > 100 µM | GI50 (DU-145 prostate): 32.5 µM | TGI (DU-145 prostate): > 100 µM | GI50 (EKVX NSCLC): 21.1 µM | TGI (EKVX NSCLC): 66 µM | GI50 (HCC-2998 colon): 25.8 µM | TGI (HCC-2998 colon): 70.1 µM | GI50 (HCT-116 colon): 27.3 µM | TGI (HCT-116 colon): 88.8 µM | GI50 (HCT-15 colon): 32.8 µM | TGI (HCT-15 colon): > 100 µM | GI50 (HOP-62 NSCLC): 20.1 µM | TGI (HOP-62 NSCLC): 38.8 µM | GI50 (HOP-92 NSCLC): 21.1 µM | TGI (HOP-92 NSCLC): 55.3 µM | GI50 (HS 578T breast): 28.8 µM | TGI (HS 578T breast): 92.7 µM | GI50 (HT29 colon): 65.8 µM | TGI (HT29 colon): > 100 µM | GI50 (IGROV1 ovarian): 58.9 µM | TGI (IGROV1 ovarian): > 100 µM | GI50 (K-562 leukemia): 32.2 µM | TGI (K-562 leukemia): > 100 µM | GI50 (KM12 colon): 32.6 µM | TGI (KM12 colon): > 100 µM | GI50 (LOX IMVI melanoma): 37.2 µM | TGI (LOX IMVI melanoma): > 100 µM | GI50 (M14 melanoma): 39.9 µM | TGI (M14 melanoma): > 100 µM | GI50 (MALME-3M melanoma): 41.1 µM | TGI (MALME-3M melanoma): > 100 µM | GI50 (MCF7 breast): 48.4 µM | TGI (MCF7 breast): > 100 µM | GI50 (MDA-MB-231 breast): 14.5 µM | TGI (MDA-MB-231 breast): 40.1 µM | GI50 (MDA-MB-435): 55.8 µM | TGI (MDA-MB-435): > 100 µM | GI50 (NCI-H226 lung): 19.6 µM | TGI (NCI-H226 lung): 59.7 µM | GI50 (NCI-H23 lung): 23.5 µM | TGI (NCI-H23 lung): 78.8 µM | GI50 (NCI-H460 lung): 35.4 µM | TGI (NCI-H460 lung): > 100 µM | GI50 (NCI-H522 lung): 39.2 µM | TGI (NCI-H522 lung): > 100 µM | GI50 (NCI/ADR-RES ovarian): 37.6 µM | TGI (NCI/ADR-RES ovarian): > 100 µM | GI50 (OVCAR-3 ovarian): 34.9 µM | TGI (OVCAR-3 ovarian): > 100 µM | GI50 (OVCAR-4 ovarian): 27.7 µM | TGI (OVCAR-4 ovarian): 73.9 µM | GI50 (OVCAR-5 ovarian): 41 µM | TGI (OVCAR-5 ovarian): > 100 µM | GI50 (OVCAR-8 ovarian): 44.5 µM | TGI (OVCAR-8 ovarian): > 100 µM | GI50 (PC-3 prostate): 31.4 µM | TGI (PC-3 prostate): > 100 µM | GI50 (RPMI-8226 leukemia): 23.5 µM | TGI (RPMI-8226 leukemia): > 100 µM | GI50 (RXF 393 renal): 21.6 µM | TGI (RXF 393 renal): 63 µM | GI50 (SF-268 CNS): 35.5 µM | TGI (SF-268 CNS): > 100 µM | GI50 (SF-295 CNS): 17.8 µM | TGI (SF-295 CNS): 50.5 µM | GI50 (SF-539 CNS): 24.7 µM | TGI (SF-539 CNS): 41 µM | GI50 (SK-MEL-2 melanoma): 26.7 µM | TGI (SK-MEL-2 melanoma): 76.5 µM | GI50 (SK-MEL-28 melanoma): 48.2 µM | TGI (SK-MEL-28 melanoma): > 100 µM | GI50 (SK-MEL-5 melanoma): 55.7 µM | TGI (SK-MEL-5 melanoma): > 100 µM | GI50 (SK-OV-3 ovarian): 35.6 µM | TGI (SK-OV-3 ovarian): > 100 µM | GI50 (SN12C renal): 22.4 µM | TGI (SN12C renal): 58.8 µM | GI50 (SNB-19 CNS): 47 µM | TGI (SNB-19 CNS): > 100 µM | GI50 (SNB-75 CNS): 22.1 µM | TGI (SNB-75 CNS): 50 µM | GI50 (SW-620 colon): > 100 µM | TGI (SW-620 colon): > 100 µM | GI50 (T-47D breast): 53.3 µM | TGI (T-47D breast): > 100 µM | GI50 (TK-10 renal): 38.5 µM | TGI (TK-10 renal): > 100 µM | GI50 (U251 CNS): 17.1 µM | TGI (U251 CNS): 35.4 µM | GI50 (UACC-257 melanoma): 93.5 µM | TGI (UACC-257 melanoma): > 100 µM | GI50 (UACC-62 melanoma): 18.6 µM | TGI (UACC-62 melanoma): 48.4 µM | GI50 (UO-31 renal): 43 µM | TGI (UO-31 renal): > 100 µM
